The record followed here is the supplement of paper PMC11208160.

This series can be described thus: recombinant barcode read abundance after kanamycin selection (control-corrected) (log10(CPM+1)); higher = more efficient recombination; sequences stand for … in AGTGCAGAGAAAATCGGCCAGTTTTCTCTGCCTGCAGTCCGCATGCCGT…AGATTTATGCAGCGGACTGCCTTTCTCCCAAAGTGATAAACCGGACAGTATCATGGACCGGTTTTCCCGGTAATCCGTATTTGCAAGGTTGGTTTCACT; site = the 11-nt target. Put shortly:
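Duplicate cultures were plated either on chloramphenicol/ampicillin LB agar, serving as control, or on chloramphenicol/ampicillin/kanamycin with 0.1 mM IPTG. These came from a pooled E. coli library co-electroporated with a donor plasmid, each member pairing a target with an IS621 bridge RNA target-binding loop. Recombination efficiency equals averaged, control-corrected counts per million of recombinant-junction barcodes. It is listed as log10(CPM+1).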
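Also: IS621 recombinase and bridge RNA in Escherichia coli cells.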

“TGACTAGCTTGGGTTCTAACCTGTTGCCT (site TGCCTAGCTAG)”: the “recombinant barcode read abundance (log10)” value stood at 0.03. The value for “TGACTAGCTTGGGTTCTAACCTGTTGCCT (site TGGCTAGCTAG)” was 0.0206.

Turning to “TGACTAGCTTGGGTTCTAACCTGTTGCCT (site TGTCTAGCTAG)”, the “recombinant barcode read abundance (log10)” value was 0.0443. For the sequence “TGAGAACCTTGGGTTCTAACCTGTTGCCT (site AGAGAACCTAG)”, the “recombinant barcode read abundance (log10)” value stood at 0.666. The figure for “TGAGAACCTTGGGTTCTAACCTGTTGCCT (site CGAGAACCTAG)” is 0.486; for “TGAGAACCTTGGGTTCTAACCTGTTGCCT (site GGAGAACCTAG)” it is 0.118. The figure for “TGAGAACCTTGGGTTCTAACCTGTTGCCT (site TGAGAACCTAG)” is 2.33. The figure for “TGAGAGGCTTGGGTTCTAACCTGTTGCCT (site TGAGAGGCTAG)” is 0.718; for “TGAGAGGCTTGGGTTCTAACCTGTTGCCT (site TGAGCGGCTAG)” it is 0.173; for “TGAGAGGCTTGGGTTCTAACCTGTTGCCT (site TGAGGGGCTAG)” it is 0.361. Regarding “TGAGAGGCTTGGGTTCTAACCTGTTGCCT (site TGAGTGGCTAG)”, the “recombinant barcode read abundance (log10)” value was 0.638. The value for “TGAGTCCCTTGGGTTCTAACCTGTTGCCT (site TGAGTCCCTAG)” was 2.03. The value for “TGAGTCCCTTGGGTTCTAACCTGTTGCCT (site TGCGTCCCTAG)” was 0.201. The figure for “TGAGTCCCTTGGGTTCTAACCTGTTGCCT (site TGGGTCCCTAG)” is 0.444. Consider “TGAGTCCCTTGGGTTCTAACCTGTTGCCT (site TGTGTCCCTAG)”, for which the “recombinant barcode read abundance (log10)” value came to 0.523.

As to “TGATATGCTTGGGTTCTAACCTGTTGCCT (site TGAAATGCTAG)”, the “recombinant barcode read abundance (log10)” value came to 0.322.

Take “TGATATGCTTGGGTTCTAACCTGTTGCCT (site TGACATGCTAG)”: the “recombinant barcode read abundance (log10)” value is 0.347. With “TGATATGCTTGGGTTCTAACCTGTTGCCT (site TGAGATGCTAG)”, the “recombinant barcode read abundance (log10)” value was 0.0846. Regarding “TGATATGCTTGGGTTCTAACCTGTTGCCT (site TGATATGCTAG)”, the “recombinant barcode read abundance (log10)” value was determined as 0.463. The figure for “TGATTGACTTGGGTTCTAACCTGTTGCTT (site GATGCACCTCC)” is 0.194. The value for “TGATTGACTTGGGTTCTAACCTGTTGCTT (site TGATTGACTAA)” was 0.0769; that for “TGCATAGCTTGGGTTCTAACCTGTTGCCA (site CTTGCGACTAA)” was 0.068; that for “TGCATAGCTTGGGTTCTAACCTGTTGCCA (site TGCATAGCTTG)” was 0.0795. Regarding “TGCCACCCTTGGGTTCTAACCTGTTGCGT (site TACTACCCTAC)”, the “recombinant barcode read abundance (log10)” value was 0.0993. The value for “TGCCACCCTTGGGTTCTAACCTGTTGCGT (site TGCCACCCTAC)” was 2.14.

Turning to “TGCCCCGCTTGGGTTCTAACCTGTTGCCT (site ACTTAGTCTGA)”, the “recombinant barcode read abundance (log10)” value was 0.341. Take “TGCCCCGCTTGGGTTCTAACCTGTTGCCT (site TGCCCCGCTAG)”: the “recombinant barcode read abundance (log10)” value stood at 1.11. The value for “TGCCGAACTTGGGTTCTAACCTGTTGCCT (site AGCCGAACTAG)” was 0.0709; that for “TGCCGAACTTGGGTTCTAACCTGTTGCCT (site CGCCGAACTAG)” was 0.16. The figure for “TGCCGAACTTGGGTTCTAACCTGTTGCCT (site GGCCGAACTAG)” is 0.0503; for “TGCCGAACTTGGGTTCTAACCTGTTGCCT (site TGCCGAACTAG)” it is 0.161; for “TGCCGCTCTTGGGTTCTAACCTGTTGCCT (site TGACGCTCTAG)” it is 1.35. With “TGCCGCTCTTGGGTTCTAACCTGTTGCCT (site TGCCGCTCTAG)”, the “recombinant barcode read abundance (log10)” value worked out at 1.24. The figure for “TGCCGCTCTTGGGTTCTAACCTGTTGCCT (site TGGCGCTCTAG)” is 0.277; for “TGCCGCTCTTGGGTTCTAACCTGTTGCCT (site TGTCGCTCTAG)” it is 0.0629. With “TGCGACCCTTGGGTTCTAACCTGTTGCTT (site TGCGACCCTAA)”, the “recombinant barcode read abundance (log10)” value worked out at 1.74. With “TGCGACCCTTGGGTTCTAACCTGTTGCTT (site TGGGACCCTAT)”, the “recombinant barcode read abundance (log10)” value amounted to 0.312. Turning to “TGCGACTCTTGGGTTCTAACCTGTTGCCT (site TGAGACTCTAG)”, the “recombinant barcode read abundance (log10)” value was 1.47. The value for “TGCGACTCTTGGGTTCTAACCTGTTGCCT (site TGCGACTCTAG)” was 1.5. The value for “TGCGACTCTTGGGTTCTAACCTGTTGCCT (site TGGGACTCTAG)” was 0.0561; that for “TGCGACTCTTGGGTTCTAACCTGTTGCCT (site TGTGACTCTAG)” was 0.0576; that for “TGCGTAACTTGGGTTCTAACCTGTTGCCA (site GAACCTCCTAT)” was 0.0676.

“TGCGTAACTTGGGTTCTAACCTGTTGCCA (site TGCGTAACTTG)”: the “recombinant barcode read abundance (log10)” value amounted to 0.104. The value for “TGCTCTACTTGGGTTCTAACCTGTTGCTG (site TGCTCTACTCA)” was 0.00915. The value for “TGCTCTACTTGGGTTCTAACCTGTTGCTG (site TGTTCTACTCG)” was 0.114.

“TGGACTTCTTGGGTTCTAACCTGTTGCTT (site TGGAATTCTAA)”: the “recombinant barcode read abundance (log10)” value stood at 0.0677.

For “TGGACTTCTTGGGTTCTAACCTGTTGCTT (site TGGACTTCTAA)”, the “recombinant barcode read abundance (log10)” value is 0.0981. For “TGGAGCCCTTGGGTTCTAACCTGTTGCTT (site TGGAGCCCTAA)”, the “recombinant barcode read abundance (log10)” value was determined as 0.463. The value for “TGGAGCCCTTGGGTTCTAACCTGTTGCTT (site TGGAGTCCTAA)” was 0.136; that for “TGGAGTACTTGGGTTCTAACCTGTTGCTT (site TGGAGTACTAA)” was 1.02; that for “TGGAGTACTTGGGTTCTAACCTGTTGCTT (site TGTAGTACTAG)” was 0.0535.

On to “TGGATTCCTTGGGTTCTAACCTGTTGCCT (site TGGATTCCTAG)”, for which the “recombinant barcode read abundance (log10)” value was found to be 0.223. The figure for “TGGATTCCTTGGGTTCTAACCTGTTGCCT (site TGGATTGCTAG)” is 0.392; for “TGGCAATCTTGGGTTCTAACCTGTTGCCT (site ACCTCGGCTCA)” it is 0.556. On to “TGGCAATCTTGGGTTCTAACCTGTTGCCT (site TGGCAATCTAG)”, for which the “recombinant barcode read abundance (log10)” value came out at 0.257. The figure for “TGGCCCTCTTGGGTTCTAACCTGTTGCTA (site TGGCCCTCTAA)” is 1.1. With “TGGCCCTCTTGGGTTCTAACCTGTTGCTA (site TGGCCCTCTCA)”, the “recombinant barcode read abundance (log10)” value was determined as 0.0705. The value for “TGGCCCTCTTGGGTTCTAACCTGTTGCTA (site TGGCCCTCTGA)” was 0.0109. The figure for “TGGCCCTCTTGGGTTCTAACCTGTTGCTA (site TGGCCCTCTTA)” is 2.03. For “TGGCCCTCTTGGGTTCTAACCTGTTGCTG (site TGGCCCTCTAA)”, the “recombinant barcode read abundance (log10)” value came to 0.784. Regarding “TGGCCCTCTTGGGTTCTAACCTGTTGCTG (site TGGCCCTCTCA)”, the “recombinant barcode read abundance (log10)” value came out at 2.31.

Consider “TGGCCCTCTTGGGTTCTAACCTGTTGCTG (site TGGCCCTCTGA)”, for which the “recombinant barcode read abundance (log10)” value worked out at 0.0444.

Turning to “TGGCCCTCTTGGGTTCTAACCTGTTGCTG (site TGGCCCTCTTA)”, the “recombinant barcode read abundance (log10)” value worked out at 0.111. The value for “TGGCCTTCTTGGGTTCTAACCTGTTGCCT (site TAGCCTTCTAG)” was 0.0963; that for “TGGCCTTCTTGGGTTCTAACCTGTTGCCT (site TCGCCTTCTAG)” was 0.0688.

Consider “TGGCCTTCTTGGGTTCTAACCTGTTGCCT (site TGGCCTTCTAG)”, for which the “recombinant barcode read abundance (log10)” value is 0.781.

“TGGCCTTCTTGGGTTCTAACCTGTTGCCT (site TTGCCTTCTAG)”: the “recombinant barcode read abundance (log10)” value was found to be 0.0528. The value for “TGGCGAGCTTGGGTTCTAACCTGTTGCCT (site TGGCCTGCTAG)” was 0.152; that for “TGGCGAGCTTGGGTTCTAACCTGTTGCCT (site TGGCGAGCTAG)” was 1.02.

Consider “TGGCGCTCTTGGGTTCTAACCTGTTGCCT (site TGACGCTCTAG)”, for which the “recombinant barcode read abundance (log10)” value is 0.855.

Take “TGGCGCTCTTGGGTTCTAACCTGTTGCCT (site TGCCGCTCTAG)”: the “recombinant barcode read abundance (log10)” value stood at 0.

As to “TGGCGCTCTTGGGTTCTAACCTGTTGCCT (site TGGCGCTCTAG)”, the “recombinant barcode read abundance (log10)” value was found to be 0.457. Turning to “TGGCGCTCTTGGGTTCTAACCTGTTGCCT (site TGTCGCTCTAG)”, the “recombinant barcode read abundance (log10)” value turned out to be 0.0369. The figure for “TGGCTATCTTGGGTTCTAACCTGTTGCCT (site CGGCTATCTAG)” is 0.00906; for “TGGCTATCTTGGGTTCTAACCTGTTGCCT (site TGGCTATCTAG)” it is 0.187. The value for “TGGCTCCCTTGGGTTCTAACCTGTTGCCG (site TGGCTCCCTCC)” was 0.077; that for “TGGCTCCCTTGGGTTCTAACCTGTTGCCG (site TGGCTCCCTCG)” was 1.35.
